From paper PMC6344862, “Hexameric assembly of the AAA+ protein McrB is necessary for GTPase activity” (Nucleic Acids Research, 2018)
Blank lines part the entries; values can stand above or below the molecule they belong to.

Legend:
McrBΔN [1] = target: T1, McrBΔN (Escherichia coli, UniProt P15005); experiment: electron cryomicroscopy 2D class averages, hexamer; assay type: binding; conditions: 1 mM GDPNP, 1 mM MgCl2, pH 7.4
T1 construct: gene mcrB; C-terminal Gly-Ser-His6 tag (untagged version for SAXS)

McrB [2] = target: T2, McrB (Escherichia coli, UniProt P15005); experiment: steady-state intrinsic tryptophan fluorescence; assay type: binding; conditions: 0.5 uM McrB, 1 mM nucleotide, 5 mM MgCl2, pH 8, 25 C
McrBC = target: T3, McrBC (Escherichia coli, UniProt P15005); experiment: steady-state intrinsic tryptophan fluorescence; assay type: binding; conditions: 0.5 uM McrB, 0.125 uM McrC, 1 mM nucleotide, 5 mM MgCl2, pH 8, 25 C
T3 construct: gene mcrB; full-length McrB with C-terminal Gly-Ser-His6 plus untagged McrC, mixed 4:1 or SEC-purified complex; tetradecamer 734 kDa; with Type IV methyl-directed restriction enzyme EcoKMcrBC (5-methylcytosine-specific restriction enzyme subunit McrC)

McrB [3] = target: T2, McrB; experiment: SEC, nucleotide-induced oligomerisation; assay type: binding; conditions: 18 uM protein, MgCl2, pH 8
McrBΔN [4] = target: T1, McrBΔN; experiment: SEC, nucleotide-induced oligomerisation; assay type: binding; conditions: 18 uM protein, MgCl2, pH 8
McrB [5] = target: McrB (Escherichia coli, UniProt P15005, E280A); experiment: SEC-MALS, hexamer with nucleotide; assay type: binding; conditions: 18 uM protein
McrB [6] = target: McrB (Escherichia coli, UniProt P15005, E280Q); experiment: SEC-MALS, hexamer with nucleotide; assay type: binding; conditions: 18 uM protein
McrBΔN [7] = target: T1, McrBΔN; experiment: malachite green GTPase; SEC and SEC-MALS oligomerisation; assay type: biochemical; conditions: 1 mM GTP, 15 mM MgCl2, 50 mM KCl, pH 8, 37 C
McrBΔN [8] = target: T1, McrBΔN; experiment: SAXS of nucleotide-dependent hexamer; assay type: binding; conditions: McrBΔN without His-tag, 1 mg/ml
McrBΔNC = target: T4, McrBΔNC (Escherichia coli, UniProt P15005); experiment: SAXS of nucleotide-dependent tetradecamer; assay type: binding; conditions: 1 mg/ml protein
T4 construct: gene mcrB; McrB residues 162-460 (without His6 tag for SEC-MALS and SAXS) plus untagged McrC; tetradecamer 500 kDa; with Type IV methyl-directed restriction enzyme EcoKMcrBC (5-methylcytosine-specific restriction enzyme subunit McrC)

[9] = target: McrBΔN^WT (McrBΔN without His6 tag) (Escherichia coli K12) (UniProt P15005); experiment: SAXS; 1 mg/ml protein in buffer B100 with GTPγS, 15°C, beamline B21 Diamond; mass by SAXSMoW2
[10] = target: McrB (full length, C-terminal His6) (Escherichia coli K12) (UniProt P15005); experiment: SEC-MALS; Superose 6 10/300, 0.5 ml/min, 10 mM Tris-Cl pH 7.4, 100 mM NaCl, 1 mM MgCl2, 1 mM DTT, 0.1 mM GTP; McrBC and McrBΔNC complexes run at 0.6 mg/ml
[11] = target: McrBΔN^WT (McrBΔN without His6 tag) (Escherichia coli K12) (UniProt P15005); experiment: as above

Trp fluorescence increase (McrB [2]): ~ 20%
Trp fluorescence increase (McrBC): ~ 15%
Molecule: Nc1nc2c(ncn2[C@@H]2O[C@H](COP(=O)(O)OP(=O)(O)NP(=O)(O)O)[C@@H](O)[C@H]2O)c(=O)[nH]1 [GDPNP]
electron cryomicroscopy 2D class averages, hexamer (McrBΔN [1]): Imaging of McrB or McrBΔN after the addition of GDPNP showed round particles

Molecule: Nc1nc2c(ncn2[C@@H]2O[C@H](COP(=O)(O)OP(=O)(O)O)[C@@H](O)[C@H]2O)c(=O)[nH]1 [GDP]
SEC, nucleotide-induced oligomerisation (McrB [3]): In presence of GTP or GDP, McrB and McrBΔN eluted as a high molecular mass oligomer
SEC, nucleotide-induced oligomerisation (McrBΔN [4]): In presence of GTP or GDP, McrB and McrBΔN eluted as a high molecular mass oligomer
SEC-MALS, hexamer with nucleotide (McrB [5]): had a mass comparable to wild type McrB hexamer in presence of GTP or GDP
SEC-MALS, hexamer with nucleotide (McrB [6]): had a mass comparable to wild type McrB hexamer in presence of GTP or GDP

Trp fluorescence increase (McrB [2]; weak GTPase without McrC): ~ 20%
Trp fluorescence increase (McrBC; GTP hydrolysed by this complex): ~ 15%
Molecule: Nc1nc2c(ncn2[C@@H]2O[C@H](COP(=O)(O)OP(=O)(O)OP(=O)(O)O)[C@@H](O)[C@H]2O)c(=O)[nH]1 [GTP]
malachite green GTPase; SEC and SEC-MALS oligomerisation (McrBΔN [7]): only a weak GTPase activity for both McrB (Figure 5A) and McrBΔN
SEC-MALS, hexamer with nucleotide (McrB [5]): had a mass comparable to wild type McrB hexamer in presence of GTP or GDP
SEC-MALS, hexamer with nucleotide (McrB [6]): had a mass comparable to wild type McrB hexamer in presence of GTP or GDP

Trp fluorescence increase (McrB [2]): ~ 30%
Trp fluorescence increase (McrBC): ~ 23%
Molecule: Nc1nc2c(ncn2[C@@H]2O[C@H](COP(=O)(O)OP(=O)(O)OP(O)(O)=S)[C@@H](O)[C@H]2O)c(=O)[nH]1 [GTPγS]
SAXS of nucleotide-dependent hexamer (McrBΔN [8]): Good quality data was collected for McrBΔN and McrBΔNC in presence of the non-hydrolysable analogue GTPγS
SAXS of nucleotide-dependent tetradecamer (McrBΔNC): Good quality data was collected for McrBΔN and McrBΔNC in presence of the non-hydrolysable analogue GTPγS

copies of McrB in the complex [9]: 12
copies of McrC in the complex [9]: 2
copies of McrB in the complex [10]: 12
copies of McrC in the complex [10]: 2
copies of McrB in the complex [11]: 12
copies of McrC in the complex [11]: 2
B1: McrC (natural protein)
chain: MEQPVIPVRNIYYMLTYAWGYLQEIKQANLEAIPGNNLLDILGYVLNKGVLQLSRRGLELDYNPNTEIIPGIKGRIEFAKTIRGFHLNHGKTVSTFDMLNEDTLANRIIKSTLAILIKHEKLNSTIRDEARSLYRKLPGISTLHLTPQHFSYLNGGKNTRYYKFVISVCKFIVNNSIPGQNKGHYRFYDFERNEKEMSLLYQKFLYEFCRRELTSANTTRSYLKWDASSISDQSLNLLPRMETDITIRSSEKILIVDAKYYKSIFSRRMGTEKFHSQNLYQLMNYLWSLKPENGENIGGLLIYPHVDTAVKHRYKINGFDIGLCTVNLGQEWPCIHQELLDIFDEYLK
